Assay results published in patent US9663460B2, “Sulfur derivatives as chemokine receptor modulators” (ALLERGAN, INC., priority 2010, dated 2017).

Target: CCR2 (Homo sapiens (Human), UniProt P41597)
Experiment: Calcium activity assayed on the FLIPR Tetra in HEK-Gqi5 cells stably expressing CCR2
Assay type: cell-based
Conditions: FLIPR Tetra calcium assay

Sequence of CCR2 (P41597 whole entry, species assumed): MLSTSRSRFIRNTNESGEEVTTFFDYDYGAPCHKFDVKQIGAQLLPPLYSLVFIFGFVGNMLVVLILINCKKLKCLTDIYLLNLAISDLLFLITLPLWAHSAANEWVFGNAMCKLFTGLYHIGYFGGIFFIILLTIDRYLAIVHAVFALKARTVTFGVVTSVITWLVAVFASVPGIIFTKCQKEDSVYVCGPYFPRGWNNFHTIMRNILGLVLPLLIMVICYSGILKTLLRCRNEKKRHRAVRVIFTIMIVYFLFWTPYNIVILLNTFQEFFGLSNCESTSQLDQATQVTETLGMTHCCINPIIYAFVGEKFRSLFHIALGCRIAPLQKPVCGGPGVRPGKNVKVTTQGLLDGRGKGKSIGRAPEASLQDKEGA

Row | Structure (SMILES) | CCR2 % ANTAGONISM [%] | IC50 [nM]
1 | O=S(=O)(Nc1cc(Cl)ccc1SCCc1cn[nH]c1)c1cc2ccccc2o1 [N-(5-chloro-2-{[2-(1H-pyrazol-4-yl)ethyl]thio}phenyl)-1-benzofuran-2-sulfonamide] | 91 | 412
2 | Cc1n[nH]c(C)c1CC[S+]([O-])c1ccc(Cl)cc1NS(=O)(=O)c1cc2ccccc2o1 (stereo not drawn) [N-(5-chloro-2-{[2-(3,5-dimethyl-1H-pyrazol-4-yl)ethyl]sulfinyl}phenyl)-1-benzofuran-2-sulfonamide] | 83 | 3050
3 | Cc1n[nH]c(C)c1CCS(=O)(=O)c1ccc(Cl)cc1NS(=O)(=O)c1cc2ccccc2o1 [N-(5-chloro-2-{[2-(3,5-dimethyl-1H-pyrazol-4-yl)ethyl]sulfonyl}phenyl)-1-benzofuran-2-sulfonamide] | 96 | 1090
4 | Cc1n[nH]c(C)c1CCSc1ccc(Cl)cc1NS(=O)(=O)c1cc2ccccc2o1 [N-(5-chloro-2-{[2-(3,5-dimethyl-1H-pyrazol-4-yl)ethyl]thio}phenyl)-1-benzofuran-2-sulfonamide] | 89 | 279
5 | CN(C)CCC[S+]([O-])c1ccc(Cl)cc1NS(=O)(=O)c1cc2ccccc2o1 (stereo not drawn) [N-(5-chloro-2-{[3-(dimethylamino)propyl]sulfinyl}phenyl)-1-benzofuran-2-sulfonamide] | 81 | –
6 | CN(C)CCCS(=O)(=O)c1ccc(Cl)cc1NS(=O)(=O)c1cc2ccccc2o1 [N-(5-chloro-2-{[3-(dimethylamino)propyl]sulfonyl}phenyl)-1-benzofuran-2-sulfonamide] | 96 | –
7 | CN(C)CCCSc1ccc(Cl)cc1NS(=O)(=O)c1cc2ccccc2o1 [N-(5-chloro-2-{[3-(dimethylamino)propyl]thio}phenyl)-1-benzofuran-2-sulfonamide] | 106 | 2040
8 | C[N+](C)([O-])CCCS(=O)(=O)c1ccc(Cl)cc1NS(=O)(=O)c1cc2ccccc2o1 [N-(5-chloro-2-{[3-(dimethylnitroryl)propyl]sulfonyl}phenyl)-1-benzofuran-2-sulfonamide] | 83 | –
9 | O=S(=O)(Nc1cc(Cl)ccc1[S+]([O-])Cc1cccc[n+]1[O-])c1cc2ccccc2o1 (stereo not drawn) [N-(5-chloro-2-{[(1-oxidopyridin-2-yl)methyl]sulfinyl}phenyl)-1-benzofuran-2-sulfonamide] | 101 | 846
10 | O=S(=O)(Cc1cccc[n+]1[O-])c1ccc(Cl)cc1NS(=O)(=O)c1cc2ccccc2o1 [N-(5-chloro-2-{[(1-oxidopyridin-2-yl)methyl]sulfonyl}phenyl)-1-benzofuran-2-sulfonamide] | 102 | 663
11 | O=S(=O)(Nc1cc(Cl)ccc1[S+]([O-])Cc1ccc[n+]([O-])c1)c1cc2ccccc2o1 (stereo not drawn) [N-(5-chloro-2-{[(1-oxidopyridin-3-yl)methyl]sulfinyl}phenyl)-1-benzofuran-2-sulfonamide] | 101 | 646
12 | O=S(=O)(Cc1ccc[n+]([O-])c1)c1ccc(Cl)cc1NS(=O)(=O)c1cc2ccccc2o1 [N-(5-chloro-2-{[(1-oxidopyridin-3-yl)methyl]sulfonyl}phenyl)-1-benzofuran-2-sulfonamide] | 81 | 1750
13 | CCCn1cnc(C[S+]([O-])c2ccc(Cl)cc2NS(=O)(=O)c2cc3ccccc3o2)c1 (stereo not drawn) [N-(5-chloro-2-{[(1-propyl-1H-imidazol-4-yl)methyl]sulfinyl}phenyl)-1-benzofuran-2-sulfonamide] | 93 | 806
14 | CCCn1cnc(CS(=O)(=O)c2ccc(Cl)cc2NS(=O)(=O)c2cc3ccccc3o2)c1 [N-(5-chloro-2-{[(1-propyl-1H-imidazol-4-yl)methyl]sulfonyl}phenyl)-1-benzofuran-2-sulfonamide] | 98 | 804
15 | CCCn1cnc(CSc2ccc(Cl)cc2NS(=O)(=O)c2cc3ccccc3o2)c1 [N-(5-chloro-2-{[(1-propyl-1H-imidazol-4-yl)methyl]thio}phenyl)-1-benzofuran-2-sulfonamide] | 79 | 1280
16 | O=c1[nH]cc(C[S+]([O-])c2ccc(Cl)cc2NS(=O)(=O)c2cc3ccccc3o2)c(=O)[nH]1 (stereo not drawn) [N-(5-chloro-2-{[(2,4-dioxo-1,2,3,4-tetrahydropyrimidin-5-yl)methyl]sulfinyl}phenyl)-1-benzofuran-2-sulfonamide] | 21 | 3080
17 | O=c1[nH]cc(CS(=O)(=O)c2ccc(Cl)cc2NS(=O)(=O)c2cc3ccccc3o2)c(=O)[nH]1 [N-(5-chloro-2-{[(2,4-dioxo-1,2,3,4-tetrahydropyrimidin-5-yl)methyl]sulfonyl}phenyl)-1-benzofuran-2-sulfonamide] | 0 | –
18 | O=c1cc(C[S+]([O-])c2ccc(Cl)cc2NS(=O)(=O)c2cc3ccccc3o2)[nH]c(=O)[nH]1 (stereo not drawn) [N-(5-chloro-2-{[(2,6-dioxo-1,2,3,6-tetrahydropyrimidin-4-yl)methyl]sulfinyl}phenyl)-1-benzofuran-2-sulfonamide] | 62 | –
19 | O=c1cc(CS(=O)(=O)c2ccc(Cl)cc2NS(=O)(=O)c2cc3ccccc3o2)[nH]c(=O)[nH]1 [N-(5-chloro-2-{[(2,6-dioxo-1,2,3,6-tetrahydropyrimidin-4-yl)methyl]sulfonyl}phenyl)-1-benzofuran-2-sulfonamide] | 70 | –

Row | Structure (SMILES) | CCR2 % ANTAGONISM [%] | IC50 [nM]
20 | O=c1cc(CSc2ccc(Cl)cc2NS(=O)(=O)c2cc3ccccc3o2)[nH]c(=O)[nH]1 [N-(5-chloro-2-{[(2,6-dioxo-1,2,3,6-tetrahydropyrimidin-4-yl)methyl]thio}phenyl)-1-benzofuran-2-sulfonamide] | 98 | 2370
21 | O=S(=O)(Nc1cc(Cl)ccc1[S+]([O-])Cc1cccnc1F)c1cc2ccccc2o1 (stereo not drawn) [N-(5-chloro-2-{[(2-fluoropyridin-3-yl)methyl]sulfinyl}phenyl)-1-benzofuran-2-sulfonamide] | 95 | 79
22 | O=S(=O)(Cc1cccnc1F)c1ccc(Cl)cc1NS(=O)(=O)c1cc2ccccc2o1 [N-(5-chloro-2-{[(2-fluoropyridin-3-yl)methyl]sulfonyl}phenyl)-1-benzofuran-2-sulfonamide] | 88 | 79
23 | O=S(=O)(Nc1cc(Cl)ccc1SCc1cccnc1F)c1cc2ccccc2o1 [N-(5-chloro-2-{[(2-fluoropyridin-3-yl)methyl]thio}phenyl)-1-benzofuran-2-sulfonamide] | 76 | 94
24 | O=C1NCC(C[S+]([O-])c2ccc(Cl)cc2NS(=O)(=O)c2cc3ccccc3o2)O1 (stereo not drawn) [N-(5-chloro-2-{[(2-oxo-1,3-oxazolidin-5-yl)methyl]sulfinyl}phenyl)-1-benzofuran-2-sulfonamide] | 79 | 2130
25 | O=C1NCC(CS(=O)(=O)c2ccc(Cl)cc2NS(=O)(=O)c2cc3ccccc3o2)O1 (stereo not drawn) [N-(5-chloro-2-{[(2-oxo-1,3-oxazolidin-5-yl)methyl]sulfonyl}phenyl)-1-benzofuran-2-sulfonamide] | 98 | 2560
26 | O=[N+]([O-])c1cc(C[S+]([O-])c2ccc(Cl)cc2NS(=O)(=O)c2cc3ccccc3o2)n[nH]1 (stereo not drawn) [N-(5-chloro-2-{[(5-nitro-1H-pyrazol-3-yl)methyl]sulfinyl}phenyl)-1-benzofuran-2-sulfonamide] | 94 | 752
27 | O=[N+]([O-])c1cc(CSc2ccc(Cl)cc2NS(=O)(=O)c2cc3ccccc3o2)n[nH]1 [N-(5-chloro-2-{[(5-nitro-1H-pyrazol-3-yl)methyl]thio}phenyl)-1-benzofuran-2-sulfonamide] | 91 | –
28 | O=S(=O)(Nc1cc(Cl)ccc1[S+]([O-])Cc1ccccc1)c1cc2ccccc2o1 (stereo not drawn) [N-[2-(benzylsulfinyl)-5-chlorophenyl]-1-benzofuran-2-sulfonamide] | 85 | 27
29 | N#Cc1ccc([S+]([O-])Cc2ccccc2)c(NS(=O)(=O)c2cc3ccccc3o2)c1 (stereo not drawn) [N-[2-(benzylsulfinyl)-5-cyanophenyl]-1-benzofuran-2-sulfonamide] | 105 | 50
30 | O=S(=O)(Cc1ccccc1)c1ccc(Cl)cc1NS(=O)(=O)c1cc2ccccc2o1 [N-[2-(benzylsulfonyl)-5-chlorophenyl]-1-benzofuran-2-sulfonamide] | 90 | 34
31 | N#Cc1ccc(S(=O)(=O)Cc2ccccc2)c(NS(=O)(=O)c2cc3ccccc3o2)c1 [N-[2-(benzylsulfonyl)-5-cyanophenyl]-1-benzofuran-2-sulfonamide] | 95 | 56
32 | O=S(=O)(Nc1cc(Cl)ccc1SCc1ccccc1)c1cc2ccccc2o1 [N-[2-(benzylthio)-5-chlorophenyl]-1-benzofuran-2-sulfonamide] | 90 | 129
33 | N#Cc1ccc(SCc2ccccc2)c(NS(=O)(=O)c2cc3ccccc3o2)c1 [N-[2-(benzylthio)-5-cyanophenyl]-1-benzofuran-2-sulfonamide] | 78 | 3840
34 | NC(=O)NCC[S+]([O-])c1ccc(Cl)cc1NS(=O)(=O)c1cc2ccccc2o1 (stereo not drawn) [N-[2-({2-[(aminocarbonyl)amino]ethyl}sulfinyl)-5-chlorophenyl]-1-benzofuran-2-sulfonamide] | 64 | 1890
35 | NC(=O)NCCS(=O)(=O)c1ccc(Cl)cc1NS(=O)(=O)c1cc2ccccc2o1 [N-[2-({2-[(aminocarbonyl)amino]ethyl}sulfonyl)-5-chlorophenyl]-1-benzofuran-2-sulfonamide] | 68 | 2000
36 | NC(=O)NCCSc1ccc(Cl)cc1NS(=O)(=O)c1cc2ccccc2o1 [N-[2-({2-[(aminocarbonyl)amino]ethyl}thio)-5-chlorophenyl]-1-benzofuran-2-sulfonamide] | 103 | 80
37 | C[S+]([O-])c1ccc(Cl)cc1NS(=O)(=O)c1cc2ccccc2o1 (stereo not drawn) [N-[5-chloro-2-(methylsulfinyl)phenyl]-1-benzofuran-2-sulfonamide] | 98 | 11
38 | C[S+]([O-])c1ccc(Cl)cc1NS(=O)(=O)c1ccc(F)cc1F (stereo not drawn) [N-[5-chloro-2-(methylsulfinyl)phenyl]-2,4-difluorobenzenesulfonamide] | 98 | 236
